Square brackets hold non-standard residues; d marks the D form. Peptide text beside a SMILES is read from it.
Test system: Growth Hormone Release
Assay: Peptide effects on growth hormone release, plasma GH by RIA in anesthetized male rats
Assay type: in vivo, rat
Procedure: In this evaluation, the procedures described by W. A. Murphy et al., Endocrinology 109:491-495 (1980), were employed.
In growth hormone (GH) experiments, male rats (Charles Rivers) were anesthetized with NEMBUTAL® (6 mg per 100 g body weight) which also served to maintain stimulated plasma GH levels. Exactly 30 minutes after the rats were anesthetized, 0.5 mL of saline or the test peptide in saline was administered as a SC bolus. A 1 mL blood sample was drawn from the jugular vein 15 minutes after the injection of the peptide in saline. GH levels were determined using NIADDKD rat GH RIA components.

**Q.** For “D-asparagine^8 -human Pancreatic Growth Hormone-Releasing(1-29)-amide [D-Asn^8]”, which “Plasma GH” value (dose 4 ug/100 g BW SC, 15 min, saline 366 ± 81) is on record?
**A.** 1296 ± 118 ng/mL

**Q.** What about the “Plasma GH” value (dose 10 ug/100 g BW SC, 15 min, saline 366 ± 81) of the same compound?
**A.** 2397 ± 246 ng/mL

**Q.** Which “Plasma GH” value (dose 0.4 μ/100 g BW SC, 15 min, saline 309 ± 20) does the source give for `CC[C@H](C)[C@H](NC(=O)[C@H](C)NC(=O)[C@H](CC(=O)O)NC(=O)[C@@H](C)NC(=O)[C@@H](N)Cc1ccc(O)cc1)C(=O)N[C@@H](Cc1ccccc1)C(=O)N[C@H](C(=O)N[C@@H](CC(N)=O)C(=O)N[C@@H](CO)C(=O)N[C@@H](Cc1ccc(O)cc1)C(=O)N[C@@H](CCCNC(=N)N)C(=O)N[C@@H](CCCNC(=N)N)C(=O)N[C@H](C(=O)N[C@@H](CC(C)C)C(=O)NCC(=O)N[C@@H](CCC(N)=O)C(=O)N[C@@H](CC(C)C)C(=O)N[C@@H](CO)C(=O)N[C@@H](C)C(=O)N[C@@H](CCCNC(=N)N)C(=O)N[C@@H](CCCNC(=N)N)C(=O)N[C@@H](CC(C)C)C(=O)N[C@@H](CC(C)C)C(=O)N[C@@H](CCC(N)=O)C(=O)N[C@@H](CC(=O)O)C(=O)N[C@H](C(=O)N[C@@H](CCSC)C(=O)N[C@@H](CO)C(=O)N[C@@H](CCCNC(=N)N)C(N)=O)[C@@H](C)CC)C(C)C)[C@@H](C)O` [[D-Ala^2, Arg^12, 21]-hpGRF(1-29)-NH2, D-alanine^2, Arginine^12,21-human Growth Hormone-Releasing (1-29)-amide] (H-Y[dA]DAIFTNSYRRVLGQLSARRLLQDIMSR-NH2) here?
**A.** 755 ± 131 ng/mL

**Q.** And the “Plasma GH” value (dose 1.0 μ/100 g BW SC, 15 min, saline 309 ± 20)?
**A.** 1752 ± 289 ng/mL

**Q.** For `CCCC[C@H](NC(=O)[C@@H](NC(=O)[C@H](CC(=O)O)NC(=O)[C@H](CCC(N)=O)NC(=O)[C@H](CC(C)C)NC(=O)[C@H](CC(C)C)NC(=O)[C@H](CCCCN)NC(=O)[C@H](CCCNC(=N)N)NC(=O)[C@H](C)NC(=O)[C@H](CO)NC(=O)[C@H](CC(C)C)NC(=O)[C@H](CCC(N)=O)NC(=O)CNC(=O)[C@H](CC(C)C)NC(=O)[C@@H](NC(=O)[C@H](CCCCN)NC(=O)[C@H](CCCNC(=N)N)NC(=O)[C@H](Cc1ccc(O)cc1)NC(=O)[C@H](CO)NC(=O)[C@H](CC(N)=O)NC(=O)[C@@H](NC(=O)[C@H](Cc1ccccc1)NC(=O)[C@@H](NC(=O)[C@H](C)NC(=O)[C@H](CC(=O)O)NC(=O)[C@@H](C)NC(=O)[C@@H](N)Cc1ccc(O)cc1)[C@@H](C)CC)[C@@H](C)O)C(C)C)[C@@H](C)CC)C(=O)N[C@@H](CO)C(=O)N[C@@H](CCCNC(=N)N)C(N)=O` [D-Ala^2 -Nle^27, D-alanine^2, Norleucine^27-human Pancreatic Growth Hormone-Releasing(1-29)-amide], which “Plasma GH” value (dose 0.1 ug/100 g BW SC, 15 min, saline 278 ± 37) is on record?
**A.** 465 ± 75 ng/mL

**Q.** And the “Plasma GH” value (dose 1.0 ug/100 g BW SC, 15 min, saline 278 ± 37)?
**A.** 2287 ± 265 ng/mL

**Q.** How did the “% Potency” value (by comparison to pooled standards GRF(1-29)-NH2, limits in parenthesis) turn out when “D-serine-9-human Pancreatic Growth Hormone-Releasing(1-29)-amine [D-Ser^9]” was run?
**A.** 108 (77-151) %

**Q.** And the “Plasma GH” value (dose 16 (unit not given), SC, 15 min)?
**A.** 1804 ± 312

**Q.** What about the “Plasma GH” value (dose 40 (unit not given), SC, 15 min) of the same compound?
**A.** 3652 ± 370

**Q.** For `CC[C@H](C)[C@H](NC(=O)[C@H](C)NC(=O)[C@@H](CC(=O)O)NC(=O)[C@@H](C)NC(=O)[C@@H](Cc1ccc(O)cc1)NC(C)=O)C(=O)N[C@@H](Cc1ccccc1)C(=O)N[C@H](C(=O)N[C@@H](CC(N)=O)C(=O)N[C@@H](CO)C(=O)N[C@@H](Cc1ccc(O)cc1)C(=O)N[C@@H](CCCNC(=N)N)C(=O)N[C@@H](CCCCN)C(=O)N[C@H](C(=O)N[C@@H](CC(C)C)C(=O)NCC(=O)N[C@@H](CCC(N)=O)C(=O)N[C@@H](CC(C)C)C(=O)N[C@@H](CO)C(=O)N[C@@H](C)C(=O)N[C@@H](CCCNC(=N)N)C(=O)N[C@@H](CCCCN)C(=O)N[C@@H](CC(C)C)C(=O)N[C@@H](CC(C)C)C(=O)N[C@@H](CCC(N)=O)C(=O)N[C@@H](CC(=O)O)C(=O)N[C@H](C(=O)N[C@@H](CCSC)C(=O)N[C@@H](CO)C(=O)N[C@@H](CCCNC(=N)N)C(N)=O)[C@@H](C)CC)C(C)C)[C@@H](C)O` [N-acetyl-D-tyrosine^1,D-alanine^2,D-aspartic acid^3-human Pancreatic Growth Hormone-Releasing(1-29)-amine], which “Plasma GH” value (dose 1.0 μg/100 g BW SC, 15 min, saline 541 ± 78) is on record?
**A.** 1181 ± 164 ng/mL

**Q.** And the “Plasma GH” value (dose 5.0 μg/100 g BW SC, 15 min, saline 541 ± 78)?
**A.** 3594 ± 754 ng/mL

**Q.** Which results are given for `CC[C@H](C)[C@H](NC(=O)[C@H](C)NC(=O)[C@H](CC(=O)O)NC(=O)[C@@H](C)NC(=O)[C@@H](Cc1ccc(O)cc1)NC(C)=O)C(=O)N[C@@H](Cc1ccccc1)C(=O)N[C@H](C(=O)N[C@@H](CC(N)=O)C(=O)N[C@@H](CO)C(=O)N[C@@H](Cc1ccc(O)cc1)C(=O)N[C@@H](CCCNC(=N)N)C(=O)N[C@@H](CCCCN)C(=O)N[C@H](C(=O)N[C@@H](CC(C)C)C(=O)NCC(=O)N[C@@H](CCC(N)=O)C(=O)N[C@@H](CC(C)C)C(=O)N[C@@H](CO)C(=O)N[C@@H](C)C(=O)N[C@@H](CCCNC(=N)N)C(=O)N[C@@H](CCCCN)C(=O)N[C@@H](CC(C)C)C(=O)N[C@@H](CC(C)C)C(=O)N[C@@H](CCC(N)=O)C(=O)N[C@@H](CC(=O)O)C(=O)N[C@H](C(=O)N[C@@H](CCSC)C(=O)N[C@@H](CO)C(=O)N[C@@H](CCCNC(=N)N)C(N)=O)[C@@H](C)CC)C(C)C)[C@@H](C)O` [[N-Ac-D-Tyr^1, D-Ala^2]-hpGRF(1-29)-NH2, N-acetyl-D-tyrosine^1,D-alanine^2-human pancreatic growth hormone-releasing (1-29)-amine]?
**A.** Plasma GH (dose 0.2 μ/100 g BW SC, 15 min, saline 333 ± 50): 680 ± 100 ng/mL; Plasma GH (dose 0.5 μ/100 g BW SC, blood 15 min after injection, saline 333 ± 50): 499 ± 50 ng/mL; Plasma GH (dose 0.8 μ/100 g BW SC, 15 min, saline 333 ± 50): 2063 ± 251 ng/mL; Plasma GH (dose 3.2 μ/100 g BW SC, 15 min, saline 333 ± 50): 3818 ± 412 ng/mL

**Q.** How did the “Plasma GH” value (dose 0.1 ug/100 g BW SC, 15 min, saline 383 ± 79) turn out when `CCCC[C@H](NC(=O)[C@@H](NC(=O)[C@H](CC(=O)O)NC(=O)[C@H](CCC(N)=O)NC(=O)[C@H](CC(C)C)NC(=O)[C@H](CC(C)C)NC(=O)[C@H](CCCCN)NC(=O)[C@H](CCCNC(=N)N)NC(=O)[C@H](C)NC(=O)[C@H](CO)NC(=O)[C@H](CC(C)C)NC(=O)[C@H](CCC(N)=O)NC(=O)CNC(=O)[C@H](CC(C)C)NC(=O)[C@@H](NC(=O)[C@H](CCCCN)NC(=O)[C@H](CCCNC(=N)N)NC(=O)[C@H](Cc1ccc(O)cc1)NC(=O)[C@H](CO)NC(=O)[C@@H](CC(N)=O)NC(=O)[C@@H](NC(=O)[C@H](Cc1ccccc1)NC(=O)[C@@H](NC(=O)[C@H](C)NC(=O)[C@@H](CC(=O)O)NC(=O)[C@@H](C)NC(=O)[C@@H](N)Cc1ccc(O)cc1)[C@@H](C)CC)[C@@H](C)O)C(C)C)[C@@H](C)CC)C(=O)N[C@@H](CO)C(=O)N[C@@H](CCCNC(=N)N)C(N)=O` [D-Ala^2 -D-Asp^3 -D-Asn^8 -Nle^27, D-alanine^2, D-aspartic acid^3, D-asparagine^8, Norleucine27-human Pancreatic Growth Hormone-Releasing(1-29)-amide] was run?
**A.** 767 ± 146 ng/mL

**Q.** What about the “Plasma GH” value (dose 1.0 ug/100 g BW SC, 15 min, saline 383 ± 79) of the same compound?
**A.** 2419 ± 252 ng/mL
